{
  "source": "PubChem BioAssay AID1259407",
  "about": "(Chemical Carcinogenesis Research Information System (CCRIS), 2018)",
  "test_system": "CCRIS mutagenicity, Ames/micronucleus/aberration tests",
  "assay": "CCRIS mutagenicity studies",
  "key": {"[1]": {"details": "Test System: AMES SALMONELLA TYPHIMURIUM, Strain/Indicator: TA98, Metabolic Activation: NONE, Method: PREINCUBATION"}, "[2]": {"details": "Test System: AMES SALMONELLA TYPHIMURIUM, Strain/Indicator: TA100, Metabolic Activation: NONE, Method: PREINCUBATION"}, "[3]": {"details": "Test System: AMES SALMONELLA TYPHIMURIUM, Strain/Indicator: TA100, Metabolic Activation: NONE, Method: STANDARD PLATE"}, "[4]": {"details": "Test System: AMES SALMONELLA TYPHIMURIUM, Strain/Indicator: TA1535, Metabolic Activation: NONE, Method: PREINCUBATION"}, "[5]": {"details": "Test System: AMES SALMONELLA TYPHIMURIUM, Strain/Indicator: TA1537, Metabolic Activation: NONE, Method: PREINCUBATION"}, "[6]": {"details": "Test System: AMES SALMONELLA TYPHIMURIUM, Strain/Indicator: TA98, Metabolic Activation: NONE, Method: STANDARD PLATE"}, "[7]": {"details": "Test System: AMES SALMONELLA TYPHIMURIUM, Strain/Indicator: TA102, Metabolic Activation: NONE, Method: STANDARD PLATE"}},
  "note": "Calls of active or inactive are those of the source. No rule for the calls is given here.",
  "data": [
    {"smiles": "NNc1ccccc1", "values": [
      {"measurement": "mutagenic call", "setting": "End Point: IN VITRO CHROMOSOMAL ABERRATIONS, Test System: CHL CELLS, Metabolic Activation: NONE", "value": "active; positive (structural changes)"},
      {"measurement": "mutagenic call", "setting": "End Point: IN VITRO CHROMOSOMAL ABERRATIONS, Test System: CHL CELLS, Metabolic Activation: RAT, LIVER, S-9, SODIUM PHENOBARBITAL AND 5,6-BENZOFLAVONE", "value": "active; positive (structural changes); authors report equivocal results for ploidy chang"},
      {"measurement": "mutagenic call", "setting": "[1]", "value": "active; positive"},
      {"measurement": "mutagenic call", "setting": "Test System: AMES SALMONELLA TYPHIMURIUM, Strain/Indicator: TA98, Metabolic Activation: RAT LIVER S-9, PHENOBARBITAL AND BETA-NAPHTHOFLAVONE, Method: PREINCUBATION", "value": "active; positive"},
      {"measurement": "mutagenic call", "setting": "[2]", "value": "inactive; negative"},
      {"measurement": "mutagenic call", "setting": "[3]", "value": "active; positive"},
      {"measurement": "mutagenic call", "setting": "Test System: AMES SALMONELLA TYPHIMURIUM, Strain/Indicator: TA100, Metabolic Activation: RAT KIDNEY, MICROSOMES, Method: STANDARD PLATE", "value": "active; positive"},
      {"measurement": "mutagenic call", "setting": "Test System: AMES SALMONELLA TYPHIMURIUM, Strain/Indicator: TA100, Metabolic Activation: RAT LIVER S-9, PHENOBARBITAL AND BETA-NAPHTHOFLAVONE, Method: PREINCUBATION", "value": "inactive; negative"},
      {"measurement": "mutagenic call", "setting": "Test System: AMES SALMONELLA TYPHIMURIUM, Strain/Indicator: TA1530, Metabolic Activation: NONE, Method: STANDARD PLATE", "value": "active; positive"},
      {"measurement": "mutagenic call", "setting": "[4]", "value": "inactive; negative"},
      {"measurement": "mutagenic call", "setting": "Test System: AMES SALMONELLA TYPHIMURIUM, Strain/Indicator: TA1535, Metabolic Activation: RAT LIVER S-9, PHENOBARBITAL AND BETA-NAPHTHOFLAVONE, Method: PREINCUBATION", "value": "inactive; negative"},
      {"measurement": "mutagenic call", "setting": "Test System: AMES SALMONELLA TYPHIMURIUM, Strain/Indicator: TA1535, Metabolic Activation: RAT, LIVER, S-9, AROCLOR 1254, Method: PREINCUBATION", "value": "inactive; negative"},
      {"measurement": "mutagenic call", "setting": "[5]", "value": "active; positive"},
      {"measurement": "mutagenic call", "setting": "Test System: AMES SALMONELLA TYPHIMURIUM, Strain/Indicator: TA1537, Metabolic Activation: RAT LIVER S-9, PHENOBARBITAL AND BETA-NAPHTHOFLAVONE, Method: PREINCUBATION", "value": "active; positive"},
      {"measurement": "mutagenic call", "setting": "Test System: AMES SALMONELLA TYPHIMURIUM, Strain/Indicator: TA1537, Metabolic Activation: RAT, LIVER, S-9, AROCLOR 1254, Method: PREINCUBATION", "value": "active; positive"},
      {"measurement": "mutagenic call", "setting": "Test System: AMES SALMONELLA TYPHIMURIUM, Strain/Indicator: TA2638, Metabolic Activation: NONE, Method: STANDARD PLATE", "value": "active; positive"},
      {"measurement": "mutagenic call", "setting": "Test System: E. COLI, Strain/Indicator: WP2 (PKM101), Metabolic Activation: NONE, Method: STANDARD PLATE", "value": "active; positive"},
      {"measurement": "mutagenic call", "setting": "Test System: E. COLI, Strain/Indicator: WP2 UVRA (PKM101), Metabolic Activation: NONE, Method: STANDARD PLATE", "value": "active; positive"},
      {"measurement": "mutagenic call", "setting": "Test System: E.COLI, Strain/Indicator: WP2UVRA, Metabolic Activation: NONE, Method: PREINCUBATION", "value": "active; positive"},
      {"measurement": "mutagenic call", "setting": "Test System: E.COLI, Strain/Indicator: WP2UVRA, Metabolic Activation: RAT LIVER S-9, PHENOBARBITAL AND BETA-NAPHTHOFLAVONE, Method: PREINCUBATION", "value": "active; positive"}
    ]},
    {"smiles": "CN1CCN(c2ccc3nc(CCc4ccc5nc(-c6ccc(N(CCCl)CCCl)cc6)[nH]c5c4)[nH]c3c2)CC1", "values": [
      {"measurement": "mutagenic call", "setting": "[6]", "value": "inactive; negative"},
      {"measurement": "mutagenic call", "setting": "[3]", "value": "inactive; negative"},
      {"measurement": "mutagenic call", "setting": "[7]", "value": "active; positive"}
    ]},
    {"smiles": "CN(C)C(=O)c1nc2n(n1)-c1ccc(Cl)cc1C(c1ccccc1Cl)=NC2", "values": [
      {"measurement": "mutagenic call", "setting": "[6]", "value": "inactive; negative"},
      {"measurement": "mutagenic call", "setting": "Test System: AMES SALMONELLA TYPHIMURIUM, Strain/Indicator: TA98, Metabolic Activation: RAT, LIVER, S-9, AROCLOR 1254, Method: STANDARD PLATE", "value": "inactive; negative"},
      {"measurement": "mutagenic call", "setting": "[3]", "value": "inactive; negative"},
      {"measurement": "mutagenic call", "setting": "Test System: AMES SALMONELLA TYPHIMURIUM, Strain/Indicator: TA100, Metabolic Activation: RAT, LIVER, S-9, AROCLOR 1254, Method: STANDARD PLATE", "value": "inactive; negative"},
      {"measurement": "mutagenic call", "setting": "[7]", "value": "inactive; negative"},
      {"measurement": "mutagenic call", "setting": "Test System: AMES SALMONELLA TYPHIMURIUM, Strain/Indicator: TA102, Metabolic Activation: RAT, LIVER, S-9, AROCLOR 1254, Method: STANDARD PLATE", "value": "inactive; negative"},
      {"measurement": "mutagenic call", "setting": "Test System: AMES SALMONELLA TYPHIMURIUM, Strain/Indicator: TA1535, Metabolic Activation: NONE, Method: STANDARD PLATE", "value": "inactive; negative"},
      {"measurement": "mutagenic call", "setting": "Test System: AMES SALMONELLA TYPHIMURIUM, Strain/Indicator: TA1535, Metabolic Activation: RAT, LIVER, S-9, AROCLOR 1254, Method: STANDARD PLATE", "value": "inactive; negative"},
      {"measurement": "mutagenic call", "setting": "Test System: AMES SALMONELLA TYPHIMURIUM, Strain/Indicator: TA1537, Metabolic Activation: NONE, Method: STANDARD PLATE", "value": "inactive; negative"},
      {"measurement": "mutagenic call", "setting": "Test System: AMES SALMONELLA TYPHIMURIUM, Strain/Indicator: TA1537, Metabolic Activation: RAT, LIVER, S-9, AROCLOR 1254, Method: STANDARD PLATE", "value": "inactive; negative"},
      {"measurement": "mutagenic call", "setting": "Test System: E. COLI, Strain/Indicator: WP2 UVRA, Metabolic Activation: NONE, Method: STANDARD PLATE", "value": "inactive; negative"},
      {"measurement": "mutagenic call", "setting": "Test System: E. COLI, Strain/Indicator: WP2 UVRA, Metabolic Activation: RAT, LIVER, S-9, AROCLOR 1254, Method: STANDARD PLATE", "value": "inactive; negative"}
    ]},
    {"smiles": "CC(=O)ON(OCc1ccccc1)C(=O)c1ccccc1", "values": [
      {"measurement": "mutagenic call", "setting": "[6]", "value": "active; positive"},
      {"measurement": "mutagenic call", "setting": "[3]", "value": "active; positive"},
      {"measurement": "mutagenic call", "setting": "Test System: AMES SALMONELLA TYPHIMURIUM, Strain/Indicator: TA100, Metabolic Activation: RAT, S-9, AROCLOR, Method: STANDARD PLATE", "value": "active; positive"}
    ]},
    {"smiles": "CCOC(=O)c1ccccc1N", "values": [
      {"measurement": "mutagenic call", "setting": "Test System: AMES SALMONELLA TYPHIMURIUM, Strain/Indicator: TA98, Metabolic Activation: HAMSTER, LIVER, S-9, AROCLOR 1254 (10%), Method: PREINCUBATION", "value": "inactive; negative"},
      {"measurement": "mutagenic call", "setting": "[1]", "value": "inactive; negative"},
      {"measurement": "mutagenic call", "setting": "Test System: AMES SALMONELLA TYPHIMURIUM, Strain/Indicator: TA98, Metabolic Activation: RAT, LIVER, S-9, AROCLOR 1254 (10%), Method: PREINCUBATION", "value": "inactive; negative"},
      {"measurement": "mutagenic call", "setting": "Test System: AMES SALMONELLA TYPHIMURIUM, Strain/Indicator: TA100, Metabolic Activation: HAMSTER, LIVER, S-9, AROCLOR 1254 (10%), Method: PREINCUBATION", "value": "inactive; negative"},
      {"measurement": "mutagenic call", "setting": "[2]", "value": "inactive; negative"},
      {"measurement": "mutagenic call", "setting": "Test System: AMES SALMONELLA TYPHIMURIUM, Strain/Indicator: TA100, Metabolic Activation: RAT, LIVER, S-9, AROCLOR 1254 (10%), Method: PREINCUBATION", "value": "inactive; negative"},
      {"measurement": "mutagenic call", "setting": "Test System: AMES SALMONELLA TYPHIMURIUM, Strain/Indicator: TA1535, Metabolic Activation: HAMSTER, LIVER, S-9, AROCLOR 1254 (10%), Method: PREINCUBATION", "value": "inactive; negative"},
      {"measurement": "mutagenic call", "setting": "[4]", "value": "inactive; negative"},
      {"measurement": "mutagenic call", "setting": "Test System: AMES SALMONELLA TYPHIMURIUM, Strain/Indicator: TA1535, Metabolic Activation: RAT, LIVER, S-9, AROCLOR 1254 (10%), Method: PREINCUBATION", "value": "inactive; negative"},
      {"measurement": "mutagenic call", "setting": "Test System: AMES SALMONELLA TYPHIMURIUM, Strain/Indicator: TA1537, Metabolic Activation: HAMSTER, LIVER, S-9, AROCLOR 1254 (10%), Method: PREINCUBATION", "value": "inactive; negative"},
      {"measurement": "mutagenic call", "setting": "[5]", "value": "inactive; negative"},
      {"measurement": "mutagenic call", "setting": "Test System: AMES SALMONELLA TYPHIMURIUM, Strain/Indicator: TA1537, Metabolic Activation: RAT, LIVER, S-9, AROCLOR 1254 (10%), Method: PREINCUBATION", "value": "inactive; negative"}
    ]}
  ]
}
